In patent US20210255193A1, “LYSINE REACTIVE PROBES AND USES THEREOF” (The Scripps Research Institute, priority 2017, published 2021):

Assays:
Assay in all cases: competitive isoTOP-ABPP
Assay type in all cases: binding
[1] = target: T1, NUDT22 Nucleoside diphosphate-linked moiety X motif 22 (Homo sapiens, UniProt Q9BRQ3); conditions: for R value (DMSO/fragment) for probe 1 labeling: Q9BRQ3_K60; for R value (DMSO/fragment) for probe 1 labeling / isoTOP-ABPP reactivity ratio at lysine Q9BRQ3_K60 / isoTOP-ABPP ratio (R) at liganded lysine Q9BRQ3_K60: 50 uM, in vitro; for R value (DMSO/fragment) for probe 1 labeling / isoTOP-ABPP reactivity ratio at lysine Q9BRQ3_K60: 231 sol; for isoTOP-ABPP ratio (R) at liganded lysine Q9BRQ3_K60: sol, 231
T1 construct: isoTOP-ABPP experiments performed in cell lysates (in vitro); endogenous in cells; host or cells: soluble proteome of human cancer cell lines (MDA-MB-231; Ramos and Jurkat also prepared)
T1 sequence (Q9BRQ3 1-303): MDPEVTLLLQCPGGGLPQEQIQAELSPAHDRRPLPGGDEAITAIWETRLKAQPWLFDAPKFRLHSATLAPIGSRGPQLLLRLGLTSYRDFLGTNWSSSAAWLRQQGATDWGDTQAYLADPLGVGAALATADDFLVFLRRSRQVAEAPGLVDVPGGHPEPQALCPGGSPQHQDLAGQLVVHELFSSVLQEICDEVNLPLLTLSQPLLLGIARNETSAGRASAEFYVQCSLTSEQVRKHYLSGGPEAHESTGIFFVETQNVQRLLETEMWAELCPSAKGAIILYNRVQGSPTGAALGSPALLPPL
Method in brief: (§1)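 Cell lysate (0.5 ml) was pre-treated with fragment, 50 μM for activated esters or 100 μM for guanidinylating agents, versus DMSO, then labeled 1 h at ambient temperature with 0.1 mM STP-alkyne. Light/heavy TEV tags attached by CuAAC; R = DMSO/compound MS1 peak-area ratio, median per lysine.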

[2] = target: T2, TSTA3 GDP-L-fucose synthase (Homo sapiens, UniProt Q13630); conditions: 50 uM, in vitro; for R value (DMSO/fragment) for probe 1 labeling: Q13630_K108; for R value (DMSO/fragment) for probe 1 labeling / isoTOP-ABPP reactivity ratio at lysine Q13630_K108: 231 sol
T2 construct: isoTOP-ABPP experiments performed in cell lysates (in vitro); endogenous in cells; host or cells: soluble proteome of human cancer cell lines (MDA-MB-231, Ramos, Jurkat)
Method in brief: as §1

[3] = target: T3, ETFA Electron transfer flavoprotein subunit alpha, mitochondrial (Homo sapiens, UniProt P13804); conditions: for R value (DMSO/fragment) for probe 1 labeling: P13804_K139; for R value (DMSO/fragment) for probe 1 labeling / isoTOP-ABPP reactivity ratio at lysine P13804_K139 / isoTOP-ABPP ratio (R) at liganded lysine P13804_K139: 50 uM, in vitro; for R value (DMSO/fragment) for probe 1 labeling / isoTOP-ABPP reactivity ratio at lysine P13804_K139: 231 sol; for isoTOP-ABPP ratio (R) at liganded lysine P13804_K139: sol, 231; for isoTOP-ABPP ratio, lysine P13804_K139: 50 uM_231_sol_in vitro
T3 construct: isoTOP-ABPP experiments performed in cell lysates (in vitro); endogenous in cells; host or cells: soluble proteome of human cancer cell lines (MDA-MB-231; Ramos and Jurkat also prepared)
T3 sequence (P13804 20-333): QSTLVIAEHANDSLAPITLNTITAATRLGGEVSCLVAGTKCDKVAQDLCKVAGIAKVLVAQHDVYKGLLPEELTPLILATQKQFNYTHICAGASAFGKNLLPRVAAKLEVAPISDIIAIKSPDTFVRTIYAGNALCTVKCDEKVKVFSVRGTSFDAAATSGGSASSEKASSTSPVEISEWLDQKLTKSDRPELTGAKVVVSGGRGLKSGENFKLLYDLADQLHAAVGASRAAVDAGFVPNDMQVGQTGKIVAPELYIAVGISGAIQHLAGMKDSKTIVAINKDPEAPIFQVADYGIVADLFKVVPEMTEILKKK
T3 sequence (P38117 2-255 partner limits assumed): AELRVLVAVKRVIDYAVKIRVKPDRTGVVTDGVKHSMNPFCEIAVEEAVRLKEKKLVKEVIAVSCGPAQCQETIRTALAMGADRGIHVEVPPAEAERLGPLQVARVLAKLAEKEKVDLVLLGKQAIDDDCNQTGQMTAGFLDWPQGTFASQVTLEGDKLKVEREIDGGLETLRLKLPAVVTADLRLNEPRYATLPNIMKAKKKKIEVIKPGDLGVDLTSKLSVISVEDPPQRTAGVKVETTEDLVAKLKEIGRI
Method in brief: as §1

[4] = target: T4, SLC25A5 ADP/ATP translocase 2 (Homo sapiens, UniProt P05141); conditions: for isoTOP-ABPP ratio (R) at liganded lysine P05141_K23: sol, 231; for isoTOP-ABPP ratio, lysine P05141_K23: 50 uM_231_sol_in vitro
T4 construct: isoTOP-ABPP experiments performed in cell lysates (in vitro); endogenous in cells; host or cells: MDA-MB-231 soluble lysate
T4 sequence (P05141 1-298): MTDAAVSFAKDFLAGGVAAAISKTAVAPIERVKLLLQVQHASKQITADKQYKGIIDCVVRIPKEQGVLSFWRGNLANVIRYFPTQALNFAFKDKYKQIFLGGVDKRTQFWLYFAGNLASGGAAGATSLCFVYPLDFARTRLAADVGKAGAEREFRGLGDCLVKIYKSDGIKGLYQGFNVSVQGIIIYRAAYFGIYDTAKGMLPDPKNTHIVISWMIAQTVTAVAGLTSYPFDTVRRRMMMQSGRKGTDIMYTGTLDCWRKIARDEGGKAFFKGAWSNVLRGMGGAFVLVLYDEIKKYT
Method in brief: as §1

T2 sequence (Q13630 whole entry, the tested form may be a part): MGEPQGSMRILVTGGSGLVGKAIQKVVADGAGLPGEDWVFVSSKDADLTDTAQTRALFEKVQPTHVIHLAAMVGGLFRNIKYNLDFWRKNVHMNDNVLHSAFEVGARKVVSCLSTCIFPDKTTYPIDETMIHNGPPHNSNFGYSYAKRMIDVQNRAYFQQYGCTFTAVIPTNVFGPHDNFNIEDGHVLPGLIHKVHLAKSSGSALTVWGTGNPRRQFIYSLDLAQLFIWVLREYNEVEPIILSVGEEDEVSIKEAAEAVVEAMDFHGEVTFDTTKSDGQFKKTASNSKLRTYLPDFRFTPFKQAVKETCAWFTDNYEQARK

O=C(CCc1cn(-c2ccccc2)nc1-c1ccccc1)Oc1c(F)c(F)c(F)c(F)c1F [fragment 19, Pentafluorophenyl 3-(1,3-diphenyl-1H-pyrazol-4-yl)propanoate]
R value (DMSO/fragment) for probe 1 labeling [1]: 0.9
R value (DMSO/fragment) for probe 1 labeling [2]: 0.8

O=C(Oc1c(F)c(F)c(F)c(F)c1F)C(c1ccccc1)c1ccccc1 [fragment 20, Pentafluorophenyl 2,2-diphenylacetate]
R value (DMSO/fragment) for probe 1 labeling [3]: 0.9
R value (DMSO/fragment) for probe 1 labeling [1]: 0.8

O=C(Oc1c(F)c(F)c(F)c(F)c1F)c1cc(C(F)(F)F)cc(C(F)(F)F)c1 [fragment 21, Pentafluorophenyl 3,5-bis(trifluoromethyl)benzoate]
R value (DMSO/fragment) for probe 1 labeling [1]: 0.8
R value (DMSO/fragment) for probe 1 labeling ([4]; P05141_K23, 50 uM, 231 sol, in vitro): 1.7
R value (DMSO/fragment) for probe 1 labeling [2]: 1.0

Cn1cc(CC(=O)Oc2c(F)c(F)c(F)c(F)c2F)c2ccccc21 [fragment 22, Pentafluorophenyl 2-(1-methyl-1H-indol-3-yl)acetate]
R value (DMSO/fragment) for probe 1 labeling [3]: 0.9
R value (DMSO/fragment) for probe 1 labeling [2]: 1.1

COc1cc(CCC(=O)Oc2c(F)c(F)c(F)c(F)c2F)cc(OC)c1OC [fragment 23, Pentafluorophenyl 3-(3,4,5-trimethoxyphenyl)propanoate]
R value (DMSO/fragment) for probe 1 labeling [3]: 1.4
R value (DMSO/fragment) for probe 1 labeling [2]: 1.0

O=C(Oc1c(F)c(F)c(F)c(F)c1F)C1CCN(C(=O)OCc2ccccc2)CC1 [fragment 24, 1-Benzyl 4-(pentafluorophenyl) piperidine-1,4-dicarboxylate]
isoTOP-ABPP reactivity ratio at lysine P13804_K139 [3]: 1.1
isoTOP-ABPP reactivity ratio at lysine Q13630_K108 [2]: 0.6

O=C(Oc1c(F)c(F)c(F)c(F)c1F)c1ccc2ccccc2n1 [fragment 25, Pentafluorophenyl quinoline-2-carboxylate]
isoTOP-ABPP reactivity ratio at lysine Q9BRQ3_K60 [1]: 0.8

O=C(CCc1coc2cc(F)ccc2c1=O)Oc1c(F)c(F)c(F)c(F)c1F [fragment 26, Pentafluorophenyl 3-(7-fluoro-4-oxo-4H-chromen-3-yl)propanoate]
isoTOP-ABPP reactivity ratio at lysine Q9BRQ3_K60 [1]: 0.8
isoTOP-ABPP reactivity ratio at lysine Q13630_K108 [2]: 1.4

O=C(CN1C(=O)c2ccccc2C1=O)Oc1c(F)c(F)c(F)c(F)c1F [fragment 27, Pentafluorophenyl 2-(1,3-dioxoisoindolin-2-yl)acetate]
isoTOP-ABPP reactivity ratio at lysine Q9BRQ3_K60 [1]: 1.2
isoTOP-ABPP reactivity ratio at lysine Q13630_K108 [2]: 4.6

CCn1cc(C(=O)Oc2c(F)c(F)c(F)c(F)c2F)c(=O)c2ccc(C)nc21 [fragment 28, Pentafluorophenyl 1-ethyl-7-methyl-4-oxo-1,4-dihydro-1,8-naphthyridine-3-carboxylate]
isoTOP-ABPP reactivity ratio at lysine Q9BRQ3_K60 [1]: 1.0
isoTOP-ABPP reactivity ratio at lysine P05141_K23 ([4]; 50 uM, 231 sol, in vitro): 1.0
isoTOP-ABPP reactivity ratio at lysine Q13630_K108 [2]: 1.0

O=C(Oc1ccc([N+](=O)[O-])cc1[N+](=O)[O-])C(c1ccccc1)c1ccccc1 [fragment 30, 2,4-Dinitrophenyl 2,2-diphenylacetate]
isoTOP-ABPP reactivity ratio at lysine P13804_K139 [3]: 20.0
isoTOP-ABPP reactivity ratio at lysine P05141_K23 ([4]; 50 uM, 231 sol, in vitro): 2.2

O=C(Oc1ccc([N+](=O)[O-])cc1[N+](=O)[O-])c1cc(C(F)(F)F)cc(C(F)(F)F)c1 [fragment 31, 2,4-Dinitrophenyl 3,5-bis(trifluoromethyl)benzoate]
isoTOP-ABPP reactivity ratio at lysine P13804_K139 [3]: 0.8
isoTOP-ABPP reactivity ratio at lysine Q9BRQ3_K60 [1]: 1.1
isoTOP-ABPP reactivity ratio at lysine P05141_K23 ([4]; 50 uM, 231 sol, in vitro): 1.5

Cn1cc(CC(=O)Oc2ccc([N+](=O)[O-])cc2[N+](=O)[O-])c2ccccc21 [fragment 32, 2,4-Dinitrophenyl 2-(1-methyl-1H-indol-3-yl)acetate]
isoTOP-ABPP reactivity ratio at lysine P13804_K139 [3]: 20.0
isoTOP-ABPP reactivity ratio at lysine Q9BRQ3_K60 [1]: 20.0
isoTOP-ABPP reactivity ratio at lysine P05141_K23 ([4]; 50 uM, 231 sol, in vitro): 1.8

COc1cc(CCC(=O)Oc2ccc([N+](=O)[O-])cc2[N+](=O)[O-])cc(OC)c1OC [fragment 33, 2,4-Dinitrophenyl 3-(3,4,5-trimethoxyphenyl)propanoate]
isoTOP-ABPP reactivity ratio at lysine P13804_K139 [3]: 0.7
isoTOP-ABPP reactivity ratio at lysine Q13630_K108 [2]: 1.2

O=C(Oc1ccc([N+](=O)[O-])cc1[N+](=O)[O-])C1CCN(C(=O)OCc2ccccc2)CC1 [fragment 34, 1-Benzyl 4-(2,4-dinitrophenyl) piperidine-1,4-dicarboxylate]
isoTOP-ABPP ratio (R) at liganded lysine P05141_K23 ([4]; 50 uM, in vitro): 1.1

O=C(Oc1ccc([N+](=O)[O-])cc1[N+](=O)[O-])c1ccc2ccccc2n1 [fragment 35, 2,4-Dinitrophenyl quinoline-2-carboxylate]
isoTOP-ABPP ratio (R) at liganded lysine P13804_K139 [3]: 0.9
isoTOP-ABPP ratio (R) at liganded lysine Q9BRQ3_K60 [1]: 1.1
isoTOP-ABPP ratio (R) at liganded lysine P05141_K23 ([4]; 50 uM, in vitro): 1.1

O=C(CCc1coc2cc(F)ccc2c1=O)Oc1ccc([N+](=O)[O-])cc1[N+](=O)[O-] [fragment 36, 2,4-Dinitrophenyl 3-(7-fluoro-4-oxo-4H-chromen-3-yl)propanoate]
isoTOP-ABPP ratio (R) at liganded lysine P13804_K139 [3]: 0.7
isoTOP-ABPP ratio (R) at liganded lysine P05141_K23 ([4]; 50 uM, in vitro): 1.1

O=C(CC12CC3CC(CC(C3)C1)C2)Oc1ccc([N+](=O)[O-])cc1[N+](=O)[O-] [fragment 38, 2,4-Dinitrophenyl 2-(adamantan-1-yl)acetate]
isoTOP-ABPP ratio (R) at liganded lysine P05141_K23 ([4]; 50 uM, in vitro): 1.1
isoTOP-ABPP ratio (R) at liganded lysine Q13630_K108 ([2]; sol, 231): 0.9

O=C(Oc1ccc([N+](=O)[O-])cc1[N+](=O)[O-])c1ccc(Oc2ccccc2)cc1 [fragment 39, 2,4-Dinitrophenyl 4-phenoxybenzoate]
isoTOP-ABPP ratio (R) at liganded lysine P13804_K139 [3]: 0.6
isoTOP-ABPP ratio (R) at liganded lysine Q9BRQ3_K60 [1]: 0.9
isoTOP-ABPP ratio (R) at liganded lysine P05141_K23 ([4]; 50 uM, in vitro): 0.9

CC(=O)Oc1ccc([N+](=O)[O-])cc1[N+](=O)[O-] [fragment 43, 2,4-Dinitrophenyl acetate]
isoTOP-ABPP ratio (R) at liganded lysine P05141_K23 ([4]; 50 uM, in vitro): 0.9

N#Cc1ccc(C(=O)Oc2ccc([N+](=O)[O-])cc2[N+](=O)[O-])cc1 [fragment 44, 2,4-Dinitrophenyl 4-cyanobenzoate]
isoTOP-ABPP ratio, lysine P13804_K139 [3]: 0.9
isoTOP-ABPP ratio, lysine P05141_K23 [4]: 1.1

O=C(Oc1c(F)c(F)c(C(F)(F)F)c(F)c1F)c1cc(C(F)(F)F)cc(C(F)(F)F)c1 [fragment 47, 2,3,5,6-Tetrafluoro-4-(trifluoromethyl)phenyl 3,5-bis(trifluoromethyl)benzoate]
isoTOP-ABPP ratio, lysine P13804_K139 [3]: 1.1
isoTOP-ABPP ratio, lysine Q9BRQ3_K60 ([1]; 50 uM_231_sol_in vitro): 1.1
isoTOP-ABPP ratio, lysine P05141_K23 [4]: 1.8

O=C(Oc1c(F)c(F)cc(F)c1F)c1cc(C(F)(F)F)cc(C(F)(F)F)c1 [fragment 48, 2,3,5,6-Tetrafluorophenyl 3,5-bis(trifluoromethyl)benzoate]
isoTOP-ABPP ratio, lysine P13804_K139 [3]: 0.9
isoTOP-ABPP ratio, lysine P05141_K23 [4]: 1.2

NC(=O)c1cc(C(F)(F)F)cc(C(F)(F)F)c1 [fragment 51, reference compound]
isoTOP-ABPP ratio, lysine P13804_K139 [3]: 1.0
